From US20200384003A1, “TRITERPENOID-CONTAINING PHARMACEUTICAL COMPOSITION AND USE THEREOF” (SHANGHAI LANMU CHEMICALS CO., LTD., priority 2017, published 2020)
Substitutions are numbered along the chain they refer to.

How the values were obtained:
[1] = test system: diabetic metabolite cataract; test: Therapeutic effect on diabetic metabolite cataract, streptozotocin model (Example 11); type: in vivo, SD rats; conditions: right eye of diabetic rat, pictures before and after 2 months of treatment (FIG. 25-29)
[2] = biological target: T1, mutated lens protein (αB-crystallin R120G) (Homo sapiens, UniProt P02511, R120G); test: Intracellular mutated lens protein aggregation inhibition experiment in transfected HeLa cells (Example 21); type: cell-based; conditions: 10 μM, treated 3.5 hours, then 6.5 h normal medium, fewer + = better
T1 construct: expressed in transfected cells; host or cells: HeLa
T1 sequence (P02511 1-175 R120G): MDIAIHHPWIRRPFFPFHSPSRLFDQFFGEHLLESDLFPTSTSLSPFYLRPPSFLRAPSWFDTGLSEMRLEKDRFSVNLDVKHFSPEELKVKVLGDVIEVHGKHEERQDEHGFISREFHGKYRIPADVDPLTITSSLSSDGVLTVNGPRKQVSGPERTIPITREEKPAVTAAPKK
Protocol: In this example, apart of the specific compounds obtained in Example 19 and Example 20 were selected for intracellular mutated lens protein (αB-crystallin R120G) aggregation inhibition experiment (experimental method was described in Chinese patent CN201580057679). The aggregation inhibition activities of compound I and compound II in the present invention on lens protein mutants were evaluated to screen a compound which was effective in treating related disease such as cataract.
The tumor cell line HeLa was selected as a host cell transfected with the mutant lens protein (αB-crystallin […]) expression plasmid, the medium was DMEM with […], and the culture conditions were 37° C., saturated humidity and 5% carbon dioxide cell incubator. Mycoplasma was negative. The transfection process is that the appropriate number of HeLa cells were inoculated on the pre-coated slides. When fully adherent cells grew to about 75% cell density, the expression vector was transfected with liposome. After 4 hours of transfection, the medium was changed to normal medium. Then the HeLa cells were cultured in the cell incubator for 13 hours to induce the expression of exogenous mutant lens protein. After changing the medium, the replaced new medium contained various compounds of the formula I and formula II of the present invention to be tested (DMSO was used as solvent in all mother fluid), wherein the final concentration of each compound was 10 μM, the negative control was 1.5% DMSO solvent, and the positive control was lanosterol (10 μM). The HeLa cells were treated with the medium containing the test compound, 1.5% DMSO solvent and lanosterol for 3.5 hours, respectively, and the normal fresh medium containing no DMSO, test compound or lanosterol was exchanged and the cells were cultured for another 6.5 h, then Anti-p62 antibody and DAPI were used for routine cellular immunofluorescence detection. The field of vision of three positions per slide was randomly selected, the ratio of cells containing aggregated crystalline proteins (lens protein aggregates) was calculated, and the effect of each test compound on intracellular aggregation of mutant lens proteins was finally determined, the results were shown in Table 19.

[3] = test system: cataract; conditions: sustained-release lanosterol drug, dogs; cited from earlier work
[4] = Pharmacokinetic study, drug in aqueous humor after eye glass cavity injection (Example 5); type: in vivo; conditions: SD rats, 5 μl injected into each glass cavity, detected 10 days after the surgery
Protocol: SD rats (about 10 weeks old, male or female) were anesthetized by intraperitoneal injection of pentobarbital sodium and pupil was dilated, then eye glass cavity injection surgery was performed. All animals were injected with the same kind of drugs in both eyes. The amount of drug injected into each glass cavity was 5 μl, and the number of test animals per drug formulation (Example 1, Example 2 and Comparative Example 1) was four, and the drug metabolism in the aqueous humor was detected 10 days after the surgery.

[5] = test system: traumatic cataract; test: Therapeutic effect of eye ointment on traumatic cataract (Example 10); type: in vivo, SD rats; conditions: pictures before and after administration (FIG. 22-24, Table 10)
[6] = biological target: T2, wild-type αB lens protein aggregate (WT αB) (Homo sapiens, UniProt P02511); test: Dissolution of lens protein aggregates, ThT fluorescence (Example 22); type: biochemical; conditions: liposome form, final concentration 125 μM, 24 hours, versus blank liposomes (FIG. 33)
T2 sequence (P02511 1-175): T1 sequence (P02511 1-175 R120G) with G120R
Protocol: The experimental method was as follows: Inotodiol was used as test compound, and its dissolution effect on wild-type αB lens protein aggregate (WT αB) was measured, and lanosterol was used as positive control.
In the present example, the formulations of pharmaceutical composition in the test group and the control group were liposome, wherein the component of the formulation of test group was 40 mg of DPPC, 10 mg of cholesterol and 10 mg of test compound; the component of the formulation of positive control group was 40 mg of DPPC, 10 mg of cholesterol and 10 mg of lanosterol; the component of formulation of the blank control group was 40 mg of DPPC and 10 mg of cholesterol. […]
The analysis of compound concentration in the liposome formulation: The obtained liposome solution was demulsificated with 4 to 5 volumes of methanol solution to afford clear solution. The concentration of compound in the liposome was determined by HPLC method, and the chromatographic conditions are as follows. […] After the comparative analysis, the concentration of corresponding compound in the liposome preparation was determined.
The induction of protein aggregates is as follows. […] After the treatment, ThT fluorescence was used to detect the effect of different compounds on αB lens protein aggregates.

[7] = Heat stability at 80° C. versus 4° C., HPLC and appearance (Example 18); type: physicochemical; conditions: for content after heat storage / initial experiment purity: HPLC; for initial experiment purity: stored at 4° C.
Protocol: The heatl stabilities of inotodiol and trametenolic acid were tested, and lanosterol was used as a reference at the same time.

[8] = test system: cataract lens; conditions: direct administration to the eyeball or lens, primates; cited from earlier work
[9] = 80° C. for 1 week, compared with 4° C.
[10] = 80° C. for 2 weeks, compared with 4° C.

SMILES	turbid area of lens / course of cataract after administration [1]	Inhibitory effect (percentage of cells containing aggregated proteins) [2]	cataract treatment effect [3]	decrease of drug concentration in aqueous humor compared with initial concentration immediately after injection [4]	cortical turbidity area of eyes with traumatic cataract, transparency after administration [5]	ThT fluorescence signal of αB lens protein aggregates [6]	appearance after heat storage [7, 9]	purity after heat storage ([7]; 80° C. for 2 weeks)	appearance after heat storage [7, 10]	appearance after heat storage ([7]; 80° C. for 1 day)	content after heat storage ([7]; 80° C. for 1 day)	content after heat storage ([7]; 80° C. for 2 day)	content after heat storage ([7]; 80° C. for 3 day)	initial experiment purity [7]	transparency of cataract lens [8]
CC(C)=CCC[C@@H](C)[C@H]1CC[C@@]2(C)C3=C(CC[C@]12C)[C@@]1(C)CC[C@H](O)C(C)(C)[C@@H]1CC3 [lanosterol, reference compound]	increased	+++ (>60% of the cells in the field of vision contain protein aggregates)	has a cataract treatment effect on dogs only when combined with high-frequency intravitreal injection	82%±14.7%	could restore transparency of lens with slight turbidity, but no obvious reversal of the disease has been observed in severe cataract	increased the ThT fluorescence signal	one third of the lanosterol turned yellow	32%	All lanosterol turned yellow	the powder became hard and formed into a large piece	73%	48%	44%	96%	does not restore or improve the transparency of cataract lens in primates
CC(C)=CCC(O)[C@@H](C)[C@H]1CC[C@@]2(C)C3=C(CC[C@]12C)[C@@]1(C)CC[C@H](O)C(C)(C)C1CC3 (stereo partly shown) [Inotodiol, inotodiol]		+ (<30% of the cells in the field of vision contained protein aggregates)		11%±2.3%		significantly reduce the ThT fluorescence signal	did not change		began to turn yellow		88%	68%	67%	94%	
CC(C)=CCC[C@@H](C(=O)O)[C@H]1CC[C@@]2(C)C3=C(CC[C@]12C)[C@@]1(C)CC[C@H](O)C(C)(C)C1CC3 (stereo partly shown) [Trametenolic acid, trametenolic acid]	reduced in a large extent	+ (<30% of the cells in the field of vision contained protein aggregates)		8%±1.5%			did not change	above 93%	no significant change in appearance and purity		97%	96%	96%	98%	
